SMILES strings stand for the structures. Where two headings read alike, the source gives them in different places.

The IC50 is the concentration that inhibits the measured activity by half.

Common to all, as to format: cell-based
One assay concerns the target T1, GSPT1 (Homo sapiens, UniProt P15170).
T1 construct: immunoblot of GSPT1 and tubulin expressed in RS4:11 cells; endogenous in cells; host or cells: RS4;11 cells
The assay can be described thus: Immunoblot of GSPT1 protein level in RS4;11 cells. Conditions: 16 hours, immunoblot, read-out: concentration required to reduce GSPT1 by 50% (DC50). As to the method:
RS4;11 cells were treated with compounds at indicated concentrations for 16 hours. […] The concentrations required to reduce GSPT1 by 50% (DC50) were below 2 nM for compound JA-189 and 10 nM JA213.
(§1) HEL, RS4;11, MV4;11, Kasumi-1 and other cells were cultured at 37° C. with 5% CO2 in RPMI 1640 or DMEM Medium supplemented with 10% fetal bovine serum. Cells were authenticated using the short tandem repeat (STR) assays. Mycoplasma test results were negative.
(§2) Rabbit anti-JAK1 antibody (3344S), anti-JAK2 antibody (3230S), anti-JAK3 antibody (8827S), anti-TYK2 antibody (14193S), anti-FLT3 antibody (3462S), anti-RET antibody (14556S), anti-phospho-STAT3 (Tyr705) antibody (9145S) and anti-phospho-STAT5 (Tyr694) antibody (4322S) were purchased from Cell Signaling Technology. Rabbit anti-GSPT1 antibody (ab126090) was purchased from Abcam. HRP-conjugated anti-α-tubulin antibody was produced in house. Media and other cell culture reagents were purchased from Thermo Fisher. The CellTiter-Glo Luminescent Assay kit was purchased from Promega.
(§3) Cultured cells were washed with cold PBS once and lysed in cold RIPA buffer supplemented with protease inhibitors and phosphatase inhibitors (Beyotime Biotechnology). The solutions were then incubated at 4° C. for 30 minutes with gentle agitation to fully lyse cells. Cell lysates were centrifuged at 13,000 rpm for 10 minutes at 4° C. and pellets were discarded. Total protein concentrations in the lysates were determined by BCA assays (Beyotime Biotechnology). Cell lysates were mixed with Laemmli loading buffer to 1× and heated at 99° C. for 5 min. Proteins were resolved on SDS-PAGE and visualized by chemiluminescence. Images were taken by a ChemiDoc MP Imaging system (Bio-Rad). Protein bands were quantitated using the accompanied software provided by Bio-Rad.

The target of the next assay is T2, JAK1 (Homo sapiens, UniProt P23458).
T2 construct: immunoblot of JAK1/3 proteins expressed in RS4;11 cells; endogenous in cells; host or cells: RS4;11 cells
T2 sequence (P23458 whole entry): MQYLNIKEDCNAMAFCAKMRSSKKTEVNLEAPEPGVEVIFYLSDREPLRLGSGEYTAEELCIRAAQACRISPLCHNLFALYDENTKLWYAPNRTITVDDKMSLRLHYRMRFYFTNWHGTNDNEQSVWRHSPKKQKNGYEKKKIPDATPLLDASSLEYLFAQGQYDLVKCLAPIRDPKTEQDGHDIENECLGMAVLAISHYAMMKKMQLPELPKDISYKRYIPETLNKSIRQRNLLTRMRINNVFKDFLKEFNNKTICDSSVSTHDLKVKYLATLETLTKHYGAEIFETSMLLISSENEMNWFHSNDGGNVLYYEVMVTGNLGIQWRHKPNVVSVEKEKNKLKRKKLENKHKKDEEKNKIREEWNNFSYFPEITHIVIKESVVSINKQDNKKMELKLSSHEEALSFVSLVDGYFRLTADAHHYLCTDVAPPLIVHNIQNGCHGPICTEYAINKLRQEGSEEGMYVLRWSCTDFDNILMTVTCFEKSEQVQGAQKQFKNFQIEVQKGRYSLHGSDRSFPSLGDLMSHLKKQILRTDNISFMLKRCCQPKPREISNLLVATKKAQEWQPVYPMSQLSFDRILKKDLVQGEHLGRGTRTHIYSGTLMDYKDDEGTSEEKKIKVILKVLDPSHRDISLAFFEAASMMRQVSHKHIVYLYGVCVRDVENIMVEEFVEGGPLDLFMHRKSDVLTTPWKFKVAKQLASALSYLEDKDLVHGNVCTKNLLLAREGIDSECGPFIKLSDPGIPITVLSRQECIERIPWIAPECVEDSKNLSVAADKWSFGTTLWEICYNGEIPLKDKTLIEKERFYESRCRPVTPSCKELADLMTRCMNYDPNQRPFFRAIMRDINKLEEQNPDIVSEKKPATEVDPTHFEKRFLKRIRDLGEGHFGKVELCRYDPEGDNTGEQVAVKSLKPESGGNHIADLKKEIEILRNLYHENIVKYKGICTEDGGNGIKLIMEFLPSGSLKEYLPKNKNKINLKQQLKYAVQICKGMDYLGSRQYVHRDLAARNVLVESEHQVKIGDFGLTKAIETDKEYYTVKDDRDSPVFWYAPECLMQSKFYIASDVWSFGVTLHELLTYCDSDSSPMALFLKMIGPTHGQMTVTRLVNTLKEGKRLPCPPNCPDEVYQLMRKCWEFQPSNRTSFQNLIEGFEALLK
The assay can be described thus: Immunoblot of JAK1 protein level in RS4;11 cells. Conditions: 24 hours, immunoblot, read-out: concentration required to reduce JAK1 by 50% (DC50). As to the method:
RS4;11 cells were treated with compounds at indicated concentrations for 24 hours. […] The concentrations required to reduce JAK1 by 50% (DC50) were below 5 nM and 35 nM for compound JA-189 and JA213, respectively.
as §1, §2, §3
For orientation: In western blotting, separated proteins are transferred to a membrane and probed.

The next assay concerns RS4;11 cells. Briefly: Cell viability assay (CellTiter-Glo) in RS4;11 cells. As to conditions: cell viability, read-out: IC50. The gist of the method: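 RS4;11 cells seeded at 5000 per well, exposed for 3 days to 8- or 12-point 3-fold serial dilutions. Viability read by CellTiter-Glo luminescence; IC50 fitted by nonlinear least-squares regression.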
(In general: In ATP-based viability assays light output follows the ATP content of the culture.)

The subject of another assay is MEG-01 cells. Briefly: Cell viability assay (CellTiter-Glo) in MEG-01 cells. As to conditions: MEG-01, CML, 3 days. As to the method: (§4) MV4;11, RS4;11, Kasumi-1, HEL and other cells were treated with NVP-BSK805, TG101209 or selected degraders for 3 days at indicated concentrations following a 3-fold serial dilution.
as §1
(§5) Cells were seeded at a density of 5000 cells per well in 96-well assay plates and treated with test compounds following a 8-point or 12-point 3-fold serial dilution. Three days later, cell viability was determined using the CellTiter-Glo assay kit according to the manufacturer's instructions. The dose-response curves were determined and IC50 values were calculated using the GraphPad Prism software following a nonlinear regression (least squares fit) method.

A further assay concerns MOLM-13 cells. Briefly: Cell viability assay (CellTiter-Glo) in MOLM-13 cells. As to conditions: MOLM-13, AML, 3 days. How it is done: as §4, §1, §5
The subject of the next assay is NOMO-1 cells. Briefly: Cell viability assay (CellTiter-Glo) in NOMO-1 cells. Conditions: NOMO-1, AML, 3 days. How it is done: as §4, §1, §5
The next assay relates to NCI-H929 cells. The assay can be described thus: Cell viability assay (CellTiter-Glo) in NCI-H929 cells. As to conditions: NCI-H929, Multiple Myeloma, 3 days. As to the method: as §4, §1, §5
Another assay concerns SU-DHL-1 cells. The assay can be described thus: Cell viability assay (CellTiter-Glo) in SU-DHL-1 cells. Conditions: SU-DHL-1, large cell lymphoma, 3 days. As to the method: as §4, §1, §5
Another assay relates to CCRF-CEM cells. The assay can be described thus: Cell viability assay (CellTiter-Glo) in CCRF-CEM cells. As to conditions: T-ALL, 3 days. As to the method:
as §4, §1, §5

For the next assay, the system named is Jurkat cells. Briefly: Cell viability assay (CellTiter-Glo) in Jurkat cells. As to conditions: T-ALL, 3 days. How it is done: as §4, §1, §5
In another assay the test system is AMO-1 cells. Briefly: Cell viability assay (CellTiter-Glo) in AMO-1 cells. As to conditions: AMO-1, Multiple Myeloma, 3 days. As to the method: as §4, §1, §5
A further assay relates to HEL cells. The assay can be described thus: Cell viability assay (CellTiter-Glo) in HEL cells. As to conditions: erythroleukemia, cell viability, 3 days. How it is done:
as §4, §1, §5

In a further assay the test system is WSU-DLCL2 cells. The assay can be described thus: Cell viability assay (CellTiter-Glo) in WSU-DLCL2 cells. Conditions: WSU-DLCL2, DLBCL, 3 days. As to the method:
as §4, §1, §5

The next assay relates to MV4;11 cells. The assay can be described thus: Cell viability assay (CellTiter-Glo) in MV4;11 cells. Conditions: MV4;11, AML, cell viability, 3 days. As to the method: as §4, §1, §5
In a further assay the test system is Pfeiffer cells. Briefly: Cell viability assay (CellTiter-Glo) in Pfeiffer cells. Conditions: DLBCL, 3 days. How it is done: as §4, §1, §5
In a further assay the test system is HL-60 cells. Briefly: Cell viability assay (CellTiter-Glo) in HL-60 cells. As to conditions: HL-60, APL, 3 days. As to the method:
as §4, §1, §5

A further assay relates to KM12 cells. The assay can be described thus: Cell viability assay (CellTiter-Glo) in KM12 cells. As to conditions: KM12, colorectal carcinoma, 3 days. As to the method:
as §4, §1, §5

The test system of another assay is Kasumi-1 cells. Briefly: Cell viability assay (CellTiter-Glo) in Kasumi-1 cells. Conditions: Kasumi-1, AML, cell viability, 3 days. As to the method: as §4, §1, §5
The next assay relates to MM.1S cells. Briefly: Cell viability assay (CellTiter-Glo) in MM.1S cells. Conditions: Multiple Myeloma, 3 days. How it is done: as §4, §1, §5
The next assay relates to MOLT-4 cells. The assay can be described thus: Cell viability assay (CellTiter-Glo) in MOLT-4 cells. As to conditions: MOLT-4, T-ALL, 3 days. How it is done:
as §4, §1, §5

The mark [1] stands for this setting: Homo sapiens, 72 h, RS4;11 cells, 3 days, CellTiter-Glo.

T1 sequence (P15170 whole entry): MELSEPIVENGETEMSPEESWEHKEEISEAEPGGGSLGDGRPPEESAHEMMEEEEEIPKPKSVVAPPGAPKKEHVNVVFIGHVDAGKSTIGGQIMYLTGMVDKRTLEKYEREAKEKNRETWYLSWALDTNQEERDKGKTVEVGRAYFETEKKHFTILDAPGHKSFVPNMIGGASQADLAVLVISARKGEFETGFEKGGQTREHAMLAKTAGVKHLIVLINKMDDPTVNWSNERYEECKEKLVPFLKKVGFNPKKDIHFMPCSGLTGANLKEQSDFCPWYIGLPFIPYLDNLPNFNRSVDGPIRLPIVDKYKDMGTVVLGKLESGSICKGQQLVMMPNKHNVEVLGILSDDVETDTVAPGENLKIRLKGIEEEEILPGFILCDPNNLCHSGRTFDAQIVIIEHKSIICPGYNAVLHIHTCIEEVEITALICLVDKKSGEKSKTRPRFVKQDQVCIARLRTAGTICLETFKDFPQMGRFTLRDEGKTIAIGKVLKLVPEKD

For `CS(=O)(=O)c1ccc(-c2cccc3nc(Nc4ccc(N5CCN(CC(=O)NCCCCCCCCNc6ccc7c(c6)C(=O)N(C6CCC(=O)NC6=O)C7=O)CC5)cc4)nn23)cc1` (centres unmarked) [JA213], the DC50 on GSPT1 is < 0.01 µM; on JAK1, < 0.035 µM.

Consider `Cn1c(=O)n(C2CCC(=O)NC2=O)c2ccc(NCCCCC(=O)N3CCN(c4ccc(Nc5nc6cccc(-c7ccc(S(C)(=O)=O)cc7)n6n5)cc4)CC3)cc21` (centres unmarked) [JA-291, 3-(3-Methyl-5-((5-(4-(4-((5-(4-(methylsulfonyl)phenyl)-[1,2,4]triazolo[1,5-a]pyridin-2-yl)amino)phenyl)piperazin-1-yl)-5-oxopentyl)amino)-2-oxo-2,3-dihydro-1H-benzo[d]imidazol-1-yl)piperidine-2,6-dione], for which the IC50 in the assay with RS4;11 cells (setting [1]) was > 0.5 µM.

With `Cn1c(=O)n(C2CCC(=O)NC2=O)c2ccc(NCCCCCC(=O)N3CCN(c4ccc(Nc5nc6cccc(-c7ccc(S(C)(=O)=O)cc7)n6n5)cc4)CC3)cc21` (centres unmarked) [JA-292, 3-(3-Methyl-5-((6-(4-(4-((5-(4-(methylsulfonyl)phenyl)-[1,2,4]triazolo[1,5-a]pyridin-2-yl)amino)phenyl)piperazin-1-yl)-6-oxohexyl)amino)-2-oxo-2,3-dihydro-1H-benzo[d]imidazol-1-yl)piperidine-2,6-dione], in the assay on RS4;11 cells (setting [1]), the half-inhibitory concentration (IC50) was > 0.5 µM.

For the molecule `Cn1c(=O)n(C2CCC(=O)NC2=O)c2ccc(NCCCCCCC(=O)N3CCN(c4ccc(Nc5nc6cccc(-c7ccc(S(C)(=O)=O)cc7)n6n5)cc4)CC3)cc21` (centres unmarked) [JA-293, 3-(3-Methyl-5-((7-(4-(4-((5-(4-(methylsulfonyl)phenyl)-[1,2,4]triazolo[1,5-a]pyridin-2-yl)amino)phenyl)piperazin-1-yl)-7-oxoheptyl)amino)-2-oxo-2,3-dihydro-1H-benzo[d]imidazol-1-yl)piperidine-2,6-dione], in the assay with RS4;11 cells (setting [1]), the IC50 was > 0.5 µM.

For the molecule `Fc1cc(-c2cccc3ncc(-c4cnn(C5CCNCC5)c4)nc23)cc(F)c1CN1CCOCC1` [NVP-BSK805, reference compound], the IC50 in the assay with MEG-01 cells was 8.87 µM; with MOLM-13 cells, 0.201 µM; in the assay on NOMO-1 cells, 6.28 µM; in the assay on NCI-H929 cells, > 10 µM; in the assay on SU-DHL-1 cells, > 10 µM; with CCRF-CEM cells it was > 10 µM. Also, the IC50 with Jurkat cells is 2.52 µM; in the assay with AMO-1 cells it was > 10 µM; in the assay on HEL cells, 1.04 µM; in the assay with WSU-DLCL2 cells, > 10 µM; in the assay on MV4;11 cells it was 0.391 µM; in the assay with Pfeiffer cells, > 10 µM. The IC50 with HL-60 cells was > 10 µM; in the assay with RS4;11 cells (RS4;11, B-ALL, 3 days (Table 3)), > 10 µM; in the assay with RS4;11 cells (RS4;11 cells, 3 days, CellTiter-Glo), > 10 µM; in the assay on KM12 cells, 2.86 µM; in the assay with Kasumi-1 cells, 0.758 µM; in the assay on MM.1S cells, > 10 µM. The 50% inhibitory concentration (IC50) in the assay on MOLT-4 cells was > 10 µM.

Turning to `Cc1cnc(Nc2ccc(N3CCN(C)CC3)cc2)nc1Nc1cccc(S(=O)(=O)NC(C)(C)C)c1` [TG101209, reference compound], the half-inhibitory concentration (IC50) is 7.12 µM in the assay on MEG-01 cells (Homo sapiens, 72 h); 0.0482 µM in the assay with MOLM-13 cells (Homo sapiens, 72 h); 1.3 µM with NOMO-1 cells (Homo sapiens, 72 h); > 10 µM with NCI-H929 cells (Homo sapiens, 72 h); > 10 µM with SU-DHL-1 cells (Homo sapiens, 72 h); 3.96 µM in the assay with CCRF-CEM cells (Homo sapiens, 72 h). In addition, the IC50 is 0.55 µM with Jurkat cells (Homo sapiens, 72 h); 4.78 µM in the assay on AMO-1 cells (Homo sapiens, AMO1, 72 h); 1.2 µM in the assay with HEL cells (Homo sapiens, 72 h); 1.07 µM in the assay with WSU-DLCL2 cells (Homo sapiens, WSUDLCL2, 72 h); 0.194 µM in the assay with MV4;11 cells (Homo sapiens, 72 h); > 10 µM in the assay with Pfeiffer cells (Homo sapiens, 72 h). Moreover, the IC50 in the assay with HL-60 cells (Homo sapiens, 72 h) was > 10 µM; in the assay with RS4;11 cells (setting [1]), 1.84 µM; in the assay with Kasumi-1 cells (Homo sapiens, 72 h), 0.529 µM; in the assay on MM.1S cells (Homo sapiens, MM1.S, 72 h) it was 6.11 µM; with MOLT-4 cells (Homo sapiens, 72 h) it was 2.5 µM.

These data come from patent publication US20230093099A1, “COMPOUNDS AND METHODS OF TREATING CANCERS” (CULLGEN (SHANGHAI), INC., priority 2019, published 2023).
